Common to all, as to assay: Bliss excess, mean over the matrix (fraction); higher = more synergy
The test system of assay [1] is ACHN (Kidney Carcinoma). A digest of the protocol: (§1)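 After 24 hours at 37°C and 5% CO2 in 1536-well plates, cells in DMEM/F12 or RPMI plus 10% FBS received two-drug dose matrices for 72 hours. Viability came from CellTiter-Glo 2.0 luminescence and was scaled as inhibition, anchored at 0 by vehicle wells and at 1 by blank wells. Combination Emax is taken as the second-highest inhibition in the matrix, and Bliss excess as the observed combination effect less EA + EB − EA·EB, with EA and EB the single-agent effects.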

The subject of assay [2] is AMO-1 (Plasma Cell Myeloma). A digest of the protocol: as §1
Assay [3] relates to BT-549 (Breast Carcinoma). A digest of the protocol: as §1
The subject of assay [4] is C-4-I (Cervical Carcinoma). The method in brief:
as §1

Assay [5] has as its system Ca9-22 (Head and Neck Carcinoma). The method in brief: as §1
For assay [6], the system named is HGC-27 (Gastric Carcinoma). The method in brief:
as §1

Assay [7] has as its system HOP-62 (Lung Adenocarcinoma). A digest of the protocol:
as §1

For assay [8], the system named is KARPAS-299 (T-Cell Non-Hodgkin's Lymphoma). A digest of the protocol: as §1
The subject of assay [9] is KYSE-450 (Esophageal Squamous Cell Carcinoma). The method in brief:
as §1

The subject of assay [10] is MIA-PaCa-2 (Pancreatic Carcinoma). A digest of the protocol:
as §1

Assay [11] concerns MLMA (Other Blood Carcinomas). The method in brief:
as §1

The test system of assay [12] is NCI-H727 (Other Solid Carcinomas). The method in brief: as §1
For assay [13], the system named is PANC-04-03 (Pancreatic Carcinoma). A digest of the protocol:
as §1

Assay [14] relates to RF-48 (B-Cell Non-Hodgkin's Lymphoma). A digest of the protocol:
as §1

Assay [15] concerns SU8686 (Pancreatic Carcinoma). The method in brief: as §1
For assay [16], the system named is SW13 (Other Solid Carcinomas). A digest of the protocol: as §1
For assay [17], the system named is TGW (Neuroblastoma). The method in brief: as §1
The test system of assay [18] is UACC-62 (Melanoma). The method in brief: as §1
Assay [19] concerns VA-ES-BJ (Other Solid Carcinomas). The method in brief:
as §1

Assay [20] relates to YH-13 (Glioblastoma). A digest of the protocol:
as §1

In the case of `Cc1c2c(nn1C)CSCc1cc(n(C)n1)CSc1cc(c3ccccc3c1)OCCCc1c(C(=O)O)n(C)c3c-2c(Cl)ccc13` [AZD5991] + Cn1cnc2c(F)c(Nc3ccc(Br)cc3Cl)c(C(=O)NOCCO)cc21 [Selumetinib] (first compound max 1 µM, 7x7, partner max 3 µM), the Bliss excess was determined as 0.0314 in assay [1]; 0.0129 in [2]; 0.0056 in [3]; 0.132 in assay [4]; 0.0185 in assay [5]; 0.033 in assay [6]. The Bliss excess was -0.0626 in assay [7]; 0.0496 in assay [8]; 0.0036 in assay [9]; 0.0197 in assay [10]; 0.0463 in [11]; 0.0213 in assay [12]. For the same molecule, the Bliss excess is 0.0201 in assay [13]; -0.0095 in [14]; 0.0084 in [15]; -0.0006 in [16]; 0.0029 in assay [17]; -0.0465 in assay [18]. Besides, the Bliss excess was 0.0207 in assay [19] and -0.0347 in assay [20].

`C[C@@H]1COCCN1c1cc(C2([S@](C)(=N)=O)CC2)nc(-c2ccnc3[nH]ccc23)n1` [AZD6738] + O=C(c1cc(Cc2n[nH]c(=O)c3ccccc23)ccc1F)N1CCN(C(=O)C2CC2)CC1 [Olaparib] (first compound max 10 µM, 7x7, partner max 10 µM): the Bliss excess in assay [1] was -0.0791; in assay [2], -0.0316; in [3], 0.0032; in assay [4], -0.0144; in [5], -0.042; in assay [6] it was 0.0231. In addition, the Bliss excess in [7] is 0.0092; in [8], -0.0073; in assay [9] it was 0.0066; in assay [10], -0.016; in assay [11], -0.15; in assay [12], -0.0317. Further, the Bliss excess was 0.0066 in assay [13]; -0.0422 in [14]; -0.0231 in [15]; 0.0093 in [16]; -0.0469 in [17]; 0.0235 in assay [18]. Also, the results for the Bliss excess in [19] and in [20] were -0.0692 and 0.0254, respectively.

In the case of `NC1(C(=O)N[C@@H](CCO)c2ccc(Cl)cc2)CCN(c2ncnc3[nH]ccc23)CC1` [Capivasertib] + CC(=O)c1c(C)c2cnc(Nc3ccc(N4CCNCC4)cn3)nc2n(C2CCCC2)c1=O [Palbociclib] (first compound max 10 µM, 7x7, partner max 10 µM), the Bliss excess was 0.003 in [1]; 0.0364 in assay [2]; -0.0064 in assay [3]; -0.0334 in assay [4]; 0.0171 in assay [5]; -0.0085 in assay [6]. Also, the Bliss excess in assay [7] is -0.04; in assay [8], 0.0205; in assay [9], 0.0133; in assay [10], 0.0767; in assay [11] it was -0.0769; in assay [12] it was -0.0139. The Bliss excess was -0.0351 in [13]; -0.0186 in assay [14]; -0.0465 in [15]; -0.0236 in assay [16]; -0.0744 in assay [17]; -0.057 in assay [18]. Besides, the Bliss excess in [19] worked out at 0.0144; in assay [20], 0.0004.

As to `NC1(C(=O)N[C@@H](CCO)c2ccc(Cl)cc2)CCN(c2ncnc3[nH]ccc23)CC1` [Capivasertib] + CC(C)n1c(=O)n(C)c2cnc3cc(F)c(-c4ccc(OCCCN5CCCCC5)nc4)cc3c21 [AZD1390] (first compound max 10 µM, 7x7, partner max 0.3 µM), the Bliss excess is -0.0389 in assay [1]; 0.0042 in assay [2]; -0.071 in [3]; -0.027 in assay [4]; -0.0368 in assay [5]; -0.053 in [6]. In addition, the Bliss excess in [7] is -0.0893; in assay [8], 0.015; in assay [9], -0.0209; in assay [10], -0.048; in assay [11] it was -0.0216; in [12], -0.0922. The Bliss excess is -0.0997 in assay [13]; -0.0052 in [14]; -0.0484 in [15]; 0.0127 in [16]; -0.106 in assay [17]; -0.0888 in [18]. Besides, the Bliss excess in assay [19] was -0.0467; in assay [20] it was -0.0372.

Regarding `NC1(C(=O)N[C@@H](CCO)c2ccc(Cl)cc2)CCN(c2ncnc3[nH]ccc23)CC1` [Capivasertib] + CCN(CCO)CCCOc1ccc2c(Nc3cc(CC(=O)Nc4cccc(F)c4)[nH]n3)ncnc2c1 [AZD2811] (first compound max 10 µM, 7x7, partner max 1 µM), the Bliss excess in assay [1] was -0.0384; in assay [2] it was 0.0783; in assay [3] it was -0.0197; in assay [4], -0.0492; in assay [5] it was 0.0117; in [6] it was -0.0167. The Bliss excess is 0.0196 in [7]; 0.029 in assay [8]; 0.0066 in assay [9]; 0.0031 in assay [10]; -0.0388 in [11]; -0.0058 in assay [12]. In addition, the Bliss excess in assay [13] was -0.0142; in assay [14] it was -0.0019; in [15], -0.0212; in assay [16], -0.0397; in [17] it was -0.0911; in [18], -0.016. The Bliss excess is 0.0367 in assay [19] and -0.0317 in [20].

Regarding `NC1(C(=O)N[C@@H](CCO)c2ccc(Cl)cc2)CCN(c2ncnc3[nH]ccc23)CC1` [Capivasertib] + COc1nnc2ccc(N3CCC(c4ccc(OCCN5CCN(C)C(=O)[C@H]5C)cc4)CC3)nn12 [AZD5153] (first compound max 10 µM, 7x7, partner max 1 µM), the Bliss excess in [1] was -0.0094; in [2], -0.0336; in [3], 0.0602; in assay [4] it was 0.046; in assay [5], -0.0073; in [6], 0.0097. The Bliss excess was -0.0633 in assay [7]; -0.0453 in assay [8]; -0.0508 in assay [9]; -0.0594 in assay [10]; -0.0177 in assay [11]; 0.0278 in assay [12]. The Bliss excess in [13] is -0.0242; in assay [14], -0.0275; in assay [15], -0.0359; in [16] it was -0.0086; in assay [17], -0.0364; in [18], -0.0551. Moreover, the results for the Bliss excess in assay [19] and in assay [20] were 0.0414 and 0.0553, respectively.
